Assay results taken from patent US20260325685A1, “Radiopharmaceutical Compositions Targeting Carbonic Anhydrase IX and Uses Thereof” (RayzeBio, Inc., priority 2023, published 2026).
Like-named read-outs stand apart in the source and are kept apart here.

Experiments:
human CA-IX = target: T1, human CA-IX (Homo sapiens, UniProt Q16790); experiment: Surface Plasmon Resonance (SPR) binding kinetics to recombinant human CA-IX (Biacore 8K, single-cycle kinetics, 1:1 binding model)
T1 construct: purchased Acro CA9-H82E3
Method in brief: (§1)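 At 25° C, compound was injected at nine concentrations from 100 to 0.39 nM (PBS-P+ pH 7.4, 1% DMSO) over streptavidin-captured recombinant human CA-IX or CA-XII (1200-1800 RU). Association 120 s, dissociation 1200 s, single-cycle format; association and dissociation constants from 1:1 kinetic fits.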

human CA-XII = target: T2, human CA-XII (Homo sapiens, UniProt O43570); experiment: Surface Plasmon Resonance (SPR) binding kinetics to recombinant human CA-XII (Biacore 8K, single-cycle kinetics, 1:1 binding model)
T2 construct: purchased Creative BioMart CA12-261H
Method in brief: as §1

[1] = Chelated Metal: Lu-175; SPR, 25° C., pH 7.4; read-out: CAIX KD
[2] = Chelated Metal: Lu-175, 25° C., pH 7.4, read-out: CAXII KD
[3] = read-out: CAIX KD; Chelated Metal: Lu-175; SPR, 25° C., pH 7.4
[4] = read-out: CAXII KD, Chelated Metal: Lu-175, 25° C., pH 7.4

T2 sequence (O43570 25-354): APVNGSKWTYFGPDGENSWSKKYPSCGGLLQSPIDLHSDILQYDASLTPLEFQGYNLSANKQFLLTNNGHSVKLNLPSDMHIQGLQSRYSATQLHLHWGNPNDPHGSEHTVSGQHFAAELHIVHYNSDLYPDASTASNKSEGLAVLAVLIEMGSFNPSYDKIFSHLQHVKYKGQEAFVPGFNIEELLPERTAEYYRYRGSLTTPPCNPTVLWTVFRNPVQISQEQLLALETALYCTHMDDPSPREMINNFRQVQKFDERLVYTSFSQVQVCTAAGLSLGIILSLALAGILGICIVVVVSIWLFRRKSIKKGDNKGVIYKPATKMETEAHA

Row | Compound | Kd (human CA-IX; [1]) | Kd (human CA-XII; [2]) | Kd (human CA-IX; [3]) | Kd (human CA-XII; [4])
1 | CC(CCCC(=O)N1CCC(C(N)=O)(C(=O)NCC(=O)NC2(C(=O)NCCn3cc(C45CC(c6cn7nc(S(N)(=O)=O)sc7n6)(C4)C5)nn3)CCN(C(=O)CN3CCN(CC(=O)O)CCN(CC(=O)O)CCN(CC(=O)O)CC3)CC2)CC1)(c1ccc(O)cc1)c1ccc(O)cc1.[Lu+3] [Compound 117.5] | < 1 nM | 2.5 to 10 nM |  | 
2 | CC(CCCC(=O)N1CCC(C(N)=O)(C(=O)NCC(=O)NC2(C(=O)NCCn3cc(C45CCC(C(=O)Nc6nnc(S(N)(=O)=O)s6)(CC4)CC5)nn3)CCN(C(=O)CN3CCN(CC(=O)O)CCN(CC(=O)O)CCN(CC(=O)O)CC3)CC2)CC1)(c1ccc(O)cc1)c1ccc(O)cc1.[Lu+3] [Compound 117.6] | < 1 nM | 1 to 2.5 nM |  | 
3 | Cc1cc(C(=O)Nc2nnc(S(N)(=O)=O)s2)ccc1-c1cn(CCNC(=O)C2(NC(=O)CNC(=O)C3(C(N)=O)CCN(C(=O)CCCC(C)(c4ccc(O)cc4)c4ccc(O)cc4)CC3)CCN(C(=O)CN3CCN(CC(=O)O)CCN(CC(=O)O)CCN(CC(=O)O)CC3)CC2)nn1.[Lu+3] [Compound 117.7] | < 1 nM | > 10 nM |  | 
4 | CC(CCCC(=O)N1CCC(C(N)=O)(C(=O)NCC(=O)NC2(C(=O)NCCn3cc(COc4ccc5nc(S(N)(=O)=O)sc5c4)nn3)CCN(C(=O)CN3CCN(CC(=O)O)CCN(CC(=O)O)CCN(CC(=O)O)CC3)CC2)CC1)(c1ccc(O)cc1)c1ccc(O)cc1.[Lu+3] [Compound 117.8] | < 1 nM | > 10 nM |  | 
5 | CC(CCC(=O)N[C@@H](CC(=O)N[C@@H](CC(=O)NC1(C(=O)NCCn2cc(C34CC(C(=O)Nc5nnc(S(N)(=O)=O)s5)(C3)C4)nn2)CCN(C(=O)CN2CCN(CC(=O)O)CCN(CC(=O)O)CCN(CC(=O)O)CC2)CC1)C(=O)O)C(=O)O)(c1ccc(O)cc1)c1ccc(O)cc1.[Lu+3] [Compound 117] |  |  | 1 to 2.5 nM | > 10 nM
6 | NS(=O)(=O)c1nnc(CC(=O)C23CC(c4cn(CCNC(=O)[C@H]5COCCN5C(=O)CC[C@H](NC(=O)[C@H](CCCCNC(=O)CN5CCN(CC(=O)O)CCN(CC(=O)O)CCN(CC(=O)O)CC5)NC(=O)CCC5CCCCC5)C(=O)O)nn4)(C2)C3)s1.[Lu+3] [Compound 118.1] | 1 to 2.5 nM | > 10 nM |  | 
7 | CC(CCC(=O)N1CCN(C(=O)CN2CCN(CC(=O)O)CCN(CC(=O)O)CCN(CC(=O)O)CC2)C[C@H]1C(=O)N[C@@H](CC(=O)N1CCOC[C@@H]1Cn1cc(C23CC(C(=O)Nc4nnc(S(N)(=O)=O)s4)(C2)C3)nn1)C(=O)O)(c1ccc(O)cc1)c1ccc(O)cc1.[Lu+3] [Compound 118.2] | 1 to 2.5 nM | > 10 nM |  | 
8 | NS(=O)(=O)c1nnc(NC(=O)C23CC(c4cn(CCNC(=O)[C@H]5CNCCN5C(=O)[C@H](CCCCNC(=O)CN5CCN(CC(=O)O)CCN(CC(=O)O)CCN(CC(=O)O)CC5)NC(=O)CC[C@H](NC(=O)c5n[nH]c6ccccc56)C(=O)O)nn4)(C2)C3)s1.[Lu+3] [Compound 118.3] | 2.5 to 10 nM | 2.5 to 10 nM |  | 
9 | NS(=O)(=O)c1nnc(CC(=O)C23CC(c4cn(CCNC(=O)[C@H]5COCCN5C(=O)CC[C@H](NC(=O)[C@H](CCCCNC(=O)CN5CCN(CC(=O)O)CCN(CC(=O)O)CCN(CC(=O)O)CC5)NC(=O)c5n[nH]c6ccccc56)C(=O)O)nn4)(C2)C3)s1.[Lu+3] [Compound 118.4] | 1 to 2.5 nM | > 10 nM |  | 
10 | NS(=O)(=O)c1nnc(NC(=O)C23CC(c4cn(CCNC(=O)[C@H]5CNCCN5C(=O)[C@H](CCCCNC(=O)CN5CCN(CC(=O)O)CCN(CC(=O)O)CCN(CC(=O)O)CC5)NC(=O)CC[C@H](NC(=O)CCC5CCCCC5)C(=O)O)nn4)(C2)C3)s1.[Lu+3] [Compound 118] |  |  | 1 to 2.5 nM | 2.5 to 10 nM
11 | CC(CCC(=O)N[C@@H](CC(=O)N[C@@H](CC(=O)N1CCN(C(=O)CN2CCN(CC(=O)O)CCN(CC(=O)O)CCN(CC(=O)O)CC2)C[C@H]1C(=O)NCC(=O)N1CCC2(CC1)CC(C(=O)Nc1nnc(S(N)(=O)=O)s1)C2)C(=O)O)C(=O)O)(c1ccc(O)cc1)c1ccc(O)cc1.[Lu+3] [Compound 119] |  |  | 2.5 to 10 nM | > 10 nM
